# Measured values from patent US9393271B2, “GHRH agonists for islet cell transplantation and function and the treatment of diabetes” (UNIVERSITY OF MIAMI, priority 2012, dated 2016).
# Non-standard residues stand in square brackets, D forms with d. Residues, ends and D or L forms follow the SMILES beside them. *: point of attachment. Desaminotyrosyl = O=C(CCc1ccc(O)cc1)*; hArg = N=C(N)NCCCC[C@H](N)C(=O)O; Agmatine = N=C(N)NCCCCN*; Nle = CCCC[C@H](N)C(=O)O; Orn = NCCC[C@H](N)C(=O)O; Abu = CC[C@H](N)C(=O)O; GABA = NCCCC(=O)O
# Key:
# [1] = biological target: T1, GHRH receptor (human pituitary membrane homogenates) (Homo sapiens, UniProt Q02643); experiment: GHRH receptor binding, ligand competition with 125I-labeled JV-1-42 (Table 5); conditions: for Relative affinitiy (Binding potency) vs GHRH: GHRH(1-29) = 1; for Relative affinitiy (Binding potency) vs JI-38: JI-38 = 1
# T1 sequence (Q02643 23-423): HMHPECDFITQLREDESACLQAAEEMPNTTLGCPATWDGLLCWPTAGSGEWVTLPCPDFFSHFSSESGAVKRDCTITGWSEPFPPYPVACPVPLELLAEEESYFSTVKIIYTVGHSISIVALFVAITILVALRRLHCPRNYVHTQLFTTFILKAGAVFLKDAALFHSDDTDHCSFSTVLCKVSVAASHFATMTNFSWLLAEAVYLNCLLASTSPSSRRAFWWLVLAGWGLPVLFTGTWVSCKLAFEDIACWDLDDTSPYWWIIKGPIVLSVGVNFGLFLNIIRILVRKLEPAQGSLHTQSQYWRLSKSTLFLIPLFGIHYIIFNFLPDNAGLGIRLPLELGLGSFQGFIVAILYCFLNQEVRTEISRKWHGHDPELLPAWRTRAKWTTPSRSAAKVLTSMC
# Text: Normal human pituitaries were purchased from the National Hormone and Peptide Program (A. F. Parlow, Los Angeles, County Harbor-UCLA Medical Center, Torrance, Calif.).
# [2] = biological target: T1, GHRH receptor (human pituitary membrane homogenates); experiment: GHRH receptor binding, ligand competition with 125I-labeled JV-1-42 (Table 7); parameters: Normal human pituitaries were purchased from the National Hormone and Peptide Program; tissue National Hormone and Peptide Program (A. F. Parlow, Harbor-UCLA Medical Center, Torrance, Calif.); host or cells: normal human pituitary, membrane fraction / homogenate; conditions: JI-38 = 1
# [3] = system: GH level; experiment: In vivo endocrine activity (GH release), subcutaneous administration; conditions: rat, s.c.
# Procedure: Subcutaneous Administration. Adult male rats were used and anesthetized with pentobarbital (6 mg/100 g, b.w.), by i.p. injection. […] Blood samples were taken from the jugular vein 5, 15 and/or 30 minutes after the injection. The blood samples were centrifuged, plasma was removed and the GH level was measured by ELISA. The results are summarized in terms of potency in Table 9.
# [4] = biological target: T1, GHRH receptor (human pituitary membrane homogenates); experiment: GHRH receptor binding, ligand competition with 125I-labeled [His1,Nle27]hGHRH(1-32)NH2 (Table 6); conditions: for Relative affinitiy (Binding potency) vs GHRH: GHRH(1-29) = 1; for Relative affinitiy (Binding potency) vs JI-38: JI-38 = 1
Structure (SMILES),Relative affinitiy (Binding potency) vs GHRH [1],Relative affinitiy (Binding potency) vs JI-38 [1],Relative affinitiy (Binding potency) vs JI-38 [2],Stimulation of growth hormone levels after s.c. administration (comparison in words) [3],Relative affinitiy (Binding potency) vs GHRH [4],Relative affinitiy (Binding potency) vs JI-38 [4]
"CCCC[C@H](NC(=O)[C@@H](NC(=O)[C@H](CC(=O)O)NC(=O)[C@H](CCC(N)=O)NC(=O)[C@H](CC(C)C)NC(=O)[C@H](CC(C)C)NC(=O)[C@H](CCCN)NC(=O)[C@H](CCCNC(=N)N)NC(=O)[C@H](C)NC(=O)[C@H](CO)NC(=O)[C@H](CC(C)C)NC(=O)[C@H](CCC(N)=O)NC(=O)[C@H](CC)NC(=O)[C@H](CC(C)C)NC(=O)[C@@H](NC(=O)[C@H](CCCN)NC(=O)[C@H](CCCNC(=N)N)NC(=O)[C@H](Cc1ccc(O)cc1)NC(=O)[C@H](CO)NC(=O)[C@H](CCC(N)=O)NC(=O)[C@@H](NC(=O)[C@H](Cc1ccccc1)NC(=O)[C@@H](NC(=O)[C@H](C)NC(=O)[C@H](CC(=O)O)NC(=O)[C@@H](C)NC(=O)CCc1ccc(O)cc1)[C@@H](C)CC)[C@@H](C)O)C(C)C)[C@@H](C)CC)C(=O)N[C@@H](CC(=O)O)C(=O)NCCCCNC(=N)N [Peptide P-20350, [Dat^1, D-Ala^2, Gln^8, Orn^12, Abu^15, Orn^21, Nle^27, Asp^28, Agm^29]hGHRH(1-29)] (Desaminotyrosyl-[dA]DAIFTQSYR[Orn]VL[Abu]QLSAR[Orn]LLQDI[Nle]D-Agmatine)",101.5,42.7,8.37,stimulated greater growth hormone levels than hGHRH or JI-38,–,–
"CCCC[C@H](NC(=O)[C@@H](NC(=O)[C@H](CC(=O)O)NC(=O)[C@H](CCC(N)=O)NC(=O)[C@H](CC(C)C)NC(=O)[C@H](CC(C)C)NC(=O)[C@H](CCCN)NC(=O)[C@H](CCCNC(=N)N)NC(=O)[C@H](C)NC(=O)[C@H](CO)NC(=O)[C@H](CC(C)C)NC(=O)[C@H](CCC(N)=O)NC(=O)[C@H](CC)NC(=O)[C@H](CC(C)C)NC(=O)[C@@H](NC(=O)[C@H](CCCN)NC(=O)[C@H](CCCNC(=N)N)NC(=O)[C@H](Cc1ccc(O)cc1)NC(=O)[C@H](CO)NC(=O)[C@H](CC(N)=O)NC(=O)[C@@H](NC(=O)[C@H](Cc1ccccc1)NC(=O)[C@@H](NC(=O)[C@H](C)NC(=O)[C@H](CC(=O)O)NC(=O)[C@@H](C)NC(=O)CCc1ccc(O)cc1)[C@@H](C)CC)[C@@H](C)O)C(C)C)[C@@H](C)CC)C(=O)N[C@@H](CC(=O)O)C(=O)N[C@@H](CCCNC(=N)N)C(=O)N[C@@H](CCCCNC(=N)N)C(N)=O [Peptide P-23252, [Dat^1-D-Ala^2, Orn^12, Abu^15, Orn^21, Nle^27, Asp^28, Har^30]hGHRH(1-30)NH2] (Desaminotyrosyl-[dA]DAIFTNSYR[Orn]VL[Abu]QLSAR[Orn]LLQDI[Nle]DR[hArg]-NH2)",–,–,–,–,42.3,13.9
"CCCC[C@H](NC(=O)[C@@H](NC(=O)[C@H](CC(=O)O)NC(=O)[C@H](CCC(N)=O)NC(=O)[C@H](CC(C)C)NC(=O)[C@H](CC(C)C)NC(=O)[C@H](CCCN)NC(=O)[C@H](CCCNC(=N)N)NC(=O)[C@H](C)NC(=O)[C@H](CO)NC(=O)[C@H](CC(C)C)NC(=O)[C@H](CCC(N)=O)NC(=O)[C@H](CC)NC(=O)[C@H](CC(C)C)NC(=O)[C@@H](NC(=O)[C@H](CCCN)NC(=O)[C@H](CCCNC(=N)N)NC(=O)[C@H](Cc1ccc(O)cc1)NC(=O)[C@H](CO)NC(=O)[C@@H](NC(=O)[C@@H](NC(=O)[C@H](Cc1ccccc1)NC(=O)[C@@H](NC(=O)[C@H](C)NC(=O)[C@H](CC(=O)O)NC(=O)[C@@H](C)NC(=O)CCc1ccc(O)cc1)[C@@H](C)CC)[C@@H](C)O)[C@@H](C)O)C(C)C)[C@@H](C)CC)C(=O)N[C@@H](CC(=O)O)C(=O)N[C@@H](CCCNC(=N)N)C(=O)N[C@@H](CCCCNC(=N)N)C(N)=O [Peptide P-23254, [Dat^1, D-Ala^2, Thr^8, Orn^12, Abu^15, Orn^21, Nle^27, Asp^28, Har^30]hGHRH(1-30)NH2] (Desaminotyrosyl-[dA]DAIFTTSYR[Orn]VL[Abu]QLSAR[Orn]LLQDI[Nle]DR[hArg]-NH2)",–,–,–,–,84.5,27.8
"CCCC[C@H](NC(=O)[C@@H](NC(=O)[C@H](CC(=O)O)NC(=O)[C@H](CCC(N)=O)NC(=O)[C@H](CC(C)C)NC(=O)[C@H](CC(C)C)NC(=O)[C@H](CCCN)NC(=O)[C@H](CCCNC(=N)N)NC(=O)[C@H](C)NC(=O)[C@H](CO)NC(=O)[C@H](CC(C)C)NC(=O)[C@H](CCC(N)=O)NC(=O)[C@H](CC)NC(=O)[C@H](CC(C)C)NC(=O)[C@@H](NC(=O)[C@H](CCCN)NC(=O)[C@H](CCCNC(=N)N)NC(=O)[C@H](Cc1ccc(O)cc1)NC(=O)[C@H](CO)NC(=O)[C@H](C)NC(=O)[C@@H](NC(=O)[C@H](Cc1ccccc1)NC(=O)[C@@H](NC(=O)[C@H](C)NC(=O)[C@H](CC(=O)O)NC(=O)[C@@H](C)NC(=O)CCc1ccc(O)cc1)[C@@H](C)CC)[C@@H](C)O)C(C)C)[C@@H](C)CC)C(=O)N[C@@H](CC(=O)O)C(=O)N[C@@H](CCCNC(=N)N)C(=O)N[C@@H](CCCCNC(=N)N)C(N)=O [Peptide P-23256, [Dat^1, D-Ala^2, Ala^8, Orn^12, Abu^15, Orn^21, Nle^27, Asp^28, Har^30]hGHRH(1-30)NH2] (Desaminotyrosyl-[dA]DAIFTASYR[Orn]VL[Abu]QLSAR[Orn]LLQDI[Nle]DR[hArg]-NH2)",–,–,–,–,148.0,48.7
"CCCC[C@H](NC(=O)[C@@H](NC(=O)[C@H](CC(=O)O)NC(=O)[C@H](CCC(N)=O)NC(=O)[C@H](CC(C)C)NC(=O)[C@H](CC(C)C)NC(=O)[C@H](CCCN)NC(=O)[C@H](CCCNC(=N)N)NC(=O)[C@H](C)NC(=O)[C@H](CO)NC(=O)[C@H](CC(C)C)NC(=O)[C@H](CCC(N)=O)NC(=O)[C@H](CC)NC(=O)[C@H](CC(C)C)NC(=O)[C@@H](NC(=O)[C@H](CCCN)NC(=O)[C@H](CCCNC(=N)N)NC(=O)[C@H](Cc1ccc(O)cc1)NC(=O)[C@H](CO)NC(=O)[C@H](CC(N)=O)NC(=O)[C@@H](NC(=O)[C@H](Cc1ccccc1)NC(=O)[C@@H](NC(=O)[C@H](C)NC(=O)[C@H](CC(=O)O)NC(=O)[C@@H](C)NC(=O)CCc1ccc(O)cc1)[C@@H](C)CC)[C@@H](C)O)C(C)C)[C@@H](C)CC)C(=O)N[C@@H](CO)C(=O)N[C@@H](CCCNC(=N)N)C(=O)N[C@@H](CCC(N)=O)C(=O)NCCCC(N)=O [Peptide P-29702, [Dat^1, D-Ala^2, Orn^12, Abu^15, Orn^21, Nle^27, Gln-Gab^30]hGHRH(1-30)NH2] (Desaminotyrosyl-[dA]DAIFTNSYR[Orn]VL[Abu]QLSAR[Orn]LLQDI[Nle]SRQ[GABA]-NH2)",81.2,34.2,5.06,–,–,–
